# Tested on: HCT-116 cells
# Experiment: Wound healing assay
# Assay type: cell-based, human
# Settings: HCT-116, 10 and 20 µM, 30 and 36 h of treatment
# Method: A decrease in cell–cell adhesion correlates with tumor invasion and metastasis. Migration leads to spreading and metastasis of cancer cells and is thus associated with poor prognosis of many types of cancer. Moreover, studies indicate that metastasis is the major cause of death in patients with colorectal cancer (CRC)[58]. To investigate the effect of 20d on migration, HCT-116 cells were cultured and investigated by wound healing assay. The percentage of migration was monitored over time by capturing a series of images after every 6 h up to 36 h of treatment.
# The antimigratory properties of 20d were investigated in HCT-116 cell line using wound healing assay. Briefly, cells were seeded and allowed to attach to the Ibidi-silicone insert on a cover glass-bottom 24-well plate for live-cell imaging. Next, the inserts were dislodged, and subsequently, cells were washed with a fresh medium and incubated with various concentrations of 20d in an imaging chamber (cellVivo incubation system, Olympus). For monitoring the migration of cells by live-cell microscopy with time-lapse photography, images were captured every 15 min for 36 h under 10× magnification using a fluorescence microscope (IX83 Inverted Microscope, Olympus) equipped with an XC50 phase-contrast digital color camera (Olympus). The distance between gaps was measured using ImageJ software.
smiles,measurement,value
"O=C(Nc1cccc(F)c1)OC1CCCc2c(-c3ccccc3)cc(=O)[nH]c21 (stereo not shown) [Compound 20d, (2-oxo-4-phenyl-5,6,7,8-tetrahydroquinolin-8-yl) N-(3-fluorophenyl)carbamate]",inhibition of migration,30–50%
